Assay results reported in US6642003B2, “Human glucose-dependent insulin-secreting cell line” (Cedars-Sinai Medical Center, priority 2001, dated 2003).

Tests used:
[1] = test system: PANC-1/IDX-1 cells; assay: RT-PCR of islet β-cell specific transcripts, PANC-1/IDX-1 cells; format: cell-based, human
Method: PANC-1 cells were transfected with a pcDNA3 construct (Invitrogen; Carlsbad, Calif.) harboring the wild-type full-length IDX-1 cDNA using LipoTAXI (Catalog N. 204110; Mammalian Transfection Kit, Stratagene; La Jolla, Calif.). Control cells were transfected with the vector alone. The selection of positive (i.e. transfected) cells was carried out by culturing the cells in the presence of 400 μg/ml of G418 sulfate (GN-04, Omega; Tarzana, Calif.).
After the treatment of ARIP and PANC-1 cells with GLP-1, Exendin-9, or vehicle, for the described length of time and the various doses, the culture medium was removed and the cells were washed (twice) with serum-free medium. Total RNA was isolated using the TRiazol-method (Gibco-BRL), and treated with DNase (Amplification Grade, GibcoBRL) in 20 mmol/l Tris-HCL (pH 8.4), 2 mmol/l MgCl2, and 50 mmol/l KCl to remove any traces of contaminating genomic DNA. RNA (2.5 μg) was then subjected to reverse transcription (RT reagents; Promega; Madison, Wis.). RT-PCR was undertaken in a volume of 50 μl of buffer containing 50 mmol/l KCl, 10 mmol/l Tris-HCl, 3.5 mmol/l MgCl2, 200 μmol/l each dNTPs, and 0.4 μmol/l each of sense and antisense primers to rat or human insulin (depending on the specific cell from which the RNA was extracted). Amplification was performed for 30 cycles at the denaturing temperature of 94° C. for 1 min, annealing temperature of 60° C. for 45 sec, and an extension temperature of 72° C. for 1 min. […] These included more irregular and variable cell shapes, with a cytoplasm less homogenous and “rougher” in appearance than control culture.
Treatment with GLP-1 induces the differentiation of ductal epithelial cells into insulin-producing cells. FIG. 2 illustrates a series of cell cultures grown with or without GLP-1 (10 nM) for 72 h. […] Preabsorption of the antibody with an excess of human recombinant insulin prevented the staining of insulin-positive GLP-1 treated cells (data not shown). While treatment with GLP-1 turned the majority of ARIP cells into […] For β-actin, the annealing temperature was raised to 64° C. for 1 min and gene-specific primers were used. For GLP-1-receptor (GLP-R) the annealing temperature used was 55° C. All other experimental conditions to amplify GLUT2, glucokinase, and GLP-R mRNAs were identical to those described for the amplification of insulin mRNA. RT and PCR conditions for human transcripts were identical to those described for rat mRNAs.
Southern blotting with species-specific full length cDNA probes for insulin, GLUT-2, glucokinase, GLP-1 receptor and β-actin was performed as previously described. Y. Wang, R. Perfetti, N. H. Greig, H. W. Holloway, K. A. DeOre, C. Montrose-Rafizadeh, D. Elahi, J. M. Egan, “Glucagon-like peptide-1 can reverse the age-related decline in glucose tolerance in rats.” J Clin Invest 99:2883-2889, 1997.

[2] = test system: PANC-1 cells; assay: Morphological changes (hematoxylin and eosin), parental PANC-1 cells; format: cell-based, human; conditions: GLP-1 10 nM for 72 h
From the text: Hematoxylin and eosin staining was employed, in some experiments, to show the morphological changes observed under the experimental conditions described below.

[3] = test system: glucose-intolerant aging Wistar rats; conditions: cited from earlier work

glucagon-like peptide-1 [GLP-1]
time of GLUT2 mRNA expression ([1]; GLP-1 10 nM): 24 h
time of earliest detection of insulin mRNA ([1]; GLP-1 10 nM): 48 h
time of glucokinase mRNA expression ([1]; GLP-1 10 nM): 72 h
GLP-1 dose at peak of insulin mRNA levels ([1]; data not shown): 10 nM
GLP-1 dose at plateau of insulin mRNA levels ([1]; data not shown): 20 nM
lowest dose of GLP-1 required to detect insulin mRNA ([1]; data not shown): 1 nM
morphological change [2]: did not respond
effect on glucose tolerance [3]: restored normal glucose tolerance
effect on islet cell proliferation [3]: induced islet cell proliferation
